Test system: cytochrome c; horse tuna and yeast
Test: ES-MS study of non-covalent interactions of crown ethers with three types of cytochrome c (rank order)
Format: binding
Settings: rank among the three crown ethers, all three cytochrome c types
Description: […]; horse tuna and yeast, utilizing the ES probe 50 and method of this invention.
More particularly, the experiments showing binding of crowns to cytochrome c were done by adding 1, 2, and 3 mol ratios to a 70 pmol/μL mixture of the three different cytochrome c's. The solutions were prepared with equal parts of methanol/water with 1% acetic acid. Typical sample conditions were, 95° C., 2 μL/min, 4000 VDC on the syringe, 170 VDC on the capillary tube, and 60 VDC on the skimmer.

Row | SMILES | relative tightness of binding to cytochrome c
1 | c1ccc2c(c1)OCCOCCOc1ccccc1OCCOCCO2 [Dibenzo-18-Crown-6, dibenzo-18-crown-6] | binding the least tightly
2 | C1CCC2OCCOCCOC3CCCCC3OCCOCCOC2C1 (centres unmarked) [Dicyclohexano-18-Crown-6, dicyclohexano-18-crown-6] | binding the most tightly
